The text below walks through data of PubChem BioAssay AID2305 (GlaxoSmithKline (GSK), 2010).

The assay concerns P. falciparum 3D7 growth, pLDH absorbance. The experiment in a line: P. falciparum 3D7 growth inhibition, dose response, strain 3D7 (AID 2305).

Molecules are shown by their SMILES.

The term IC50 denotes the concentration needed to halve the response being measured. A high value points to lower potency. Turning to `CN1CCCN(Cc2ccc(-c3ccc(NC(=O)c4ccc(Cl)cc4)cc3)cc2)CC1`, the IC50 is 900 nM. The value for `CCC(C)c1cnc2nc(N)nc(N)c2c1C` (stereo not drawn) was 440 nM. The value for `CC(C)N1CCC(Oc2ccc(CN3CCN(C(c4ccccc4)c4ccc(Cl)cc4)CC3)cc2)CC1` (stereo not drawn) was 940 nM; that for `CC(=O)N(C)/N=C/[C@H](CCc1ccccc1)NC(=O)[C@H](CC(C)C)NC(=O)c1cccc(OCCN2CCOCC2)c1` was 330 nM; that for `Nc1nc(N)c2c(ccc3c2ccn3Cc2ccccn2)n1` was 10 nM. In the case of `CCCN1CCN(c2cc(S(=O)(=O)Nc3ccc(C(=O)NCc4cccc(C(F)(F)F)c4)cc3)ccc2OC)CC1` it was 1010 nM; in that of `O=C(CC1NC(=O)c2ccccc21)Nc1ccc(-c2cccc(-c3nc4ccc(C(F)(F)F)cc4[nH]3)c2)cc1` (stereo not drawn), 960 nM. As for `CCn1ccc2c(N3CCCCS3(=O)=O)cc(C(=O)N[C@@H](Cc3ccccc3)[C@H](O)CNC(C)(C)c3cccc(C(F)(F)F)c3)cc21`, the half-inhibitory concentration (IC50) is 130 nM. The value for `C/C=C1/CN2CC[C@H]1C[C@H]2[C@H](O)c1ccnc2ccc(O)cc12` was 490 nM; that for `CCN(CCO)CCc1cccc(Nc2nccc(-c3c(-c4ccc(NC(=O)N(CC)CC)cc4)nn4ccccc34)n2)c1` was 1110 nM. In the case of `CN1CCc2cc(NC(=O)c3cc4ccccc4s3)cc(-c3ccccc3)c2CC1` it was 890 nM. In the case of `COCC(C)n1c(SC(C)C(=O)Nc2cc([N+](=O)[O-])ccc2Cl)nc2ccccc2c1=O` (stereo not drawn) it was 230 nM. Turning to `COc1cccc2cc(C(=O)N[C@@H](CC(C)C)C(=O)N[C@H](/C=N/N3C(=O)CN(Cc4ccccc4)C3=O)CCc3ccccc3)oc12`, the concentration for half-maximal inhibition (IC50) came out at 620 nM. `CCN1CCN(c2ccc(NC(=O)c3cc4c(C)nn(-c5ccccc5)c4s3)cc2C)CC1` had a half-inhibitory concentration (IC50) of 760 nM. In the case of `CCCCCCc1cc2cc(-c3nc(-c4ccc(OC)cc4)cs3)c(=O)oc2cc1O` it was 820 nM; in that of `COc1ccc(CNC2CCN(C)CC2)cc1-c1ccc(S(=O)(=O)NC2CCC2)cc1`, 880 nM; in that of `Cc1ccc(Cn2ncc(N3C[C@@H](C)N[C@@H](C)C3)c(Cl)c2=O)cc1NC(=O)Nc1ccc(-c2ccccc2)cc1`, 740 nM. In the case of `CC(=O)Nc1ccc(NC(=O)c2cc(-c3ccc(C)cc3O)n[nH]2)cc1` it was 490 nM; in that of `O=[N+]([O-])c1ccc2nccnc2c1`, 1070 nM.

`Nc1c2ccccc2nc2ccc(-c3ccccc3)cc12` showed a concentration for half-maximal inhibition (IC50) of 140 nM.

The molecule `COc1ccc(CCn2c(C3CCCCC3)nc3oc4ccccc4c(=O)c3c2=O)cc1` registered a half-inhibitory concentration (IC50) of 950 nM.

`CN(C)c1nc(NN=Cc2cc(Cl)ccc2O)nc(Nc2ccc(F)cc2)n1` gave a 50% inhibitory concentration (IC50) of 840 nM. In the case of `Cc1cc(NN=Cc2cccc(Cl)c2)c2ccccc2n1` it was 260 nM; in that of `COc1ccc(CNC2Cc3ccccc3C2)cc1-c1ccc(S(=O)(=O)NCc2ccccc2)s1`, 830 nM; in that of `Nc1ncc(Cc2ccc3c(ccc4ccccc43)c2)c(N)n1`, 760 nM.

Molecule `Oc1cc2ccccc2cc1CNC1CCCCC1` had an IC50 of 590 nM. In the case of `CCCCc1ccc(CCNCCCCCCNCCc2ccc(O)c(O)c2)cc1` it was 1070 nM; in that of `OC1CCCN(Cc2ccc(-c3ccc(-c4nc5ccc(F)cc5[nH]4)cc3)cc2)C1` (stereo not drawn), 850 nM; in that of `O=C(/C=C/c1ccc(Cl)c(Cl)c1)NCCCCCN1CCC(NC(=O)Nc2ccc(OC(F)F)cc2)CC1`, 750 nM. Take `CCc1c(C)c(C#N)c2nc3ccccc3n2c1NCc1ccco1`: the IC50 was found to be 700 nM. `Cc1cc(N)c2cc(NC(=O)c3cc(C(F)(F)F)cc(C(F)(F)F)c3)ccc2n1` came in with an IC50 of 90 nM. In the case of `CCCC(CNCc1ccc(Cl)c(C(F)(F)F)c1)CNc1nc2ccncc2[nH]1` (stereo not drawn) it was 290 nM; in that of `CN1CCC(N2CCN(Cc3cccc(-c4cccc(-c5nc6ccccc6[nH]5)c4)c3)CC2)CC1`, 190 nM. The value for `C=C[C@]1(C)C[C@@H](OC(=O)c2cncn(COC)c2=O)[C@]2(C)[C@H](C)CC[C@]3(CCC(=O)[C@H]32)[C@@H](C)[C@@H]1O` was 880 nM. `COC1CCC(C(=O)Nc2ccc(-c3cccc(-c4nc5c(C)cccc5[nH]4)c3)cc2)CC1` (stereo not drawn) returned an IC50 of 580 nM. The value for `Cc1nc(N)nc(N)c1-c1ccc(Br)cc1` was 230 nM; that for `C=CCNC(CCCCC)c1ccc(OCCOc2ccc(C(CCCCC)NCC=C)cc2)cc1` (stereo not drawn) was 570 nM; that for `CN(c1cc(NC(=O)c2ccc(F)cc2)ccn1)C1CCN(Cc2cccc(F)c2)CC1` was 490 nM. The value for `CC1CCCC(NC(=O)CCOc2ccccc2)C1` (stereo not drawn) was 880 nM; that for `C=CCn1c(C)cc(C(=O)COc2ccc(S(=O)(=O)N3CCOCC3)cc2[N+](=O)[O-])c1C` was 1110 nM.

Molecule `CCN(CC)CCOC(=O)c1ccc(NC(=O)c2cc(-c3ccc(C)cc3)nc3ccccc23)cc1` gave an IC50 of 780 nM. The value for `COc1ccc(CNCc2cccc(-c3ccc(-c4nc5ccccc5[nH]4)cc3)c2)cc1` was 310 nM; that for `Cc1ccc2c(NN=Cc3ccc(Cl)cc3)cc(C)nc2c1` was 950 nM; that for `Oc1ccc(OCc2ccccn2)cc1` was 980 nM. In the case of `Cc1cccc(Cn2ccc3c4c(N)nc(N)nc4ccc32)c1` it was 10 nM; in that of `CC(CN(C)C)C(=O)Nc1cccc(-c2cccc(-c3nc4ccccc4[nH]3)c2)c1` (stereo not drawn), 1060 nM; in that of `NC1=NC(c2ccccc2)(c2ccccc2)C(=O)N1Cc1ccc(-c2cccnc2)cc1`, 700 nM. The value for `CN1CCc2cc(NS(=O)(=O)c3ccc(-c4ccc(Cl)s4)cc3)c(N3CCCCC3)cc2CC1` was 730 nM; that for `c1ccc(-c2[nH]c3ccccc3c2CN2CCC(N3CCCCC3)CC2)nc1` was 1210 nM; that for `COc1ccc(C=Cc2cc(N)c3ccccc3n2)cc1Br` was 710 nM. Molecule `CCOC(=O)CNC(=O)c1cc(=O)c2ccccc2o1` came in with an IC50 of 210 nM. The value for `CC(C)Cc1nc(N)nc(N)c1-c1ccc(Cl)cc1` was 140 nM. In the case of `Cc1ccccc1C1CCN(C2CCC(NC(=O)/C=C/c3cc(F)ccc3C(F)(F)F)CC2)CC1` (stereo not drawn) it was 950 nM.

For the molecule `CN(C)c1ccc(-c2cscc2C(=O)NC2CCCN(Cc3cccnc3)C2)cc1` (stereo not drawn), the IC50 came out at 860 nM. The value for `COc1cc2nc(NCc3cccc(CNC(=O)c4ccc(-c5ccc(C(C)=O)cc5)cc4)c3)nc(N)c2cc1OC` was 120 nM; that for `COc1c(F)ccc2ncc(Cl)c(CCN3CCC(NCc4ccc5c(n4)NC(=O)CS5)CC3)c12` was 540 nM. The value for `COc1ccc(CNc2ccc3nc(N)nc(N)c3c2)cc1` was 170 nM; that for `COc1ccc(NC(=O)Nc2cccc(-c3cccc(-c4nc5ccc(F)cc5[nH]4)c3)c2)cc1` was 170 nM. `COc1ccc2nccc([C@@H](O)CN3CCC(NCCOc4cc(C(F)(F)F)ccc4F)CC3)c2c1` gave a concentration for half-maximal inhibition (IC50) of 110 nM. In the case of `O=C(Nc1ccc2c(c1)CCN2C1CCN(Cc2cccc(C(F)(F)F)c2)C1)c1ccco1` (stereo not drawn), the IC50 was found to be 560 nM.

Consider `CCN(CC)CCN(Cc1ccc(-c2ccc(C(F)(F)F)cc2)cc1)C(=O)Cn1c(CCc2cc(F)ccc2F)nc(=O)c2ccccc21`, for which the 50% inhibitory concentration (IC50) is 830 nM. Consider `COc1ccc(C=CC(=O)Nc2ccc(N3CCCC3)cc2)cc1`, for which the IC50 was 1280 nM. The value for `CS(=O)(=O)Nc1ccc2[nH]cc(C3CCN(CCCCCNC(=O)/C=C/c4ccc(Cl)c(Cl)c4)CC3)c2c1` was 740 nM.
